In patent publication USRE46942E1, “4-piperidinyl compounds for use as tankyrase inhibitors” (NOVARTIS AG, priority 2011, dated 2018) one finds IC50, AC50 and viral growth data, which are given here for 5 molecules.

Assay [1] relates to Non-small lung cancer ABC-1 cells. Briefly: Cellular proliferation assay (CellTiter-Glo). The assay is classed as cell-based. The note with it: Homo sapiens, 72 h, 3 days of compound treatment. Background: ATP-based viability assays read luminescence as a measure of living cells.
Description: Non-small lung cancer ABC-1 cells were plated at 5000 cells per well in 96-well plates and treated with 8 serial compound dilutions starting from 10 μM as the highest concentration. Viable cells were measured after 3 days of compound treatment using the CellTiter-Glo assay (Promega, G7570). Assay was performed following the manufacture protocol.
For assay [2], the system named is Axin2 protein in colorectal cell line SW480. Briefly: Cellular ELISA assay for stabilizing the Axin2 protein. The format is cell-based. The note with it: Homo sapiens; SW480 cells, 24 hrs; read-out: Axin AC50. As for the experimental part: Compound activity in stabilizing the Axin2 protein was measured by Sandwich Enzyme-Linked Immuosorbent (ELISA) assay in the colorectal cell line SW480. 30,000 SW480 cells were seeded per well in 96-well plate and incubated overnight prior to compound treatment. […] Cells were then washed with 100 μL of cold Phosphate Buffer Saline (PBS), and lysed in 125 μl of cold 1× lysis buffer (Cell Signaling Technology, 9803) supplemented with Protease inhibitor (Roche, 11836170) and Phosphatase inhibitors (Sigma, P2850, P5726). […] After blocking, plates were then washed three times with 300 μl/well of wash solution. 100 μL of prepared SW480 cell lysate was then added to each well and incubated at room temperature for 2 hours while shaking gently. After washing, 100 μL of Biotinylated anti-Axin2 antibody (CST, 2151) was added to each well and incubated room temperature for 2 hours. 100 μL of Streptavidin-HRP (R&D systems, DY998) diluted 1:200 in 1% BSA/PBS was then added in each well and incubate for 30 mins at R/T in the dark. Signal was detected by Chemiluminescence (Pierce SuperSignal ELISA Femto #3704), and measured on PerkinElmer Wallac 1420 plate reader.

Assay [3] has as its system Wnt ligand-induced signaling in HEK293 cells. The experiment in a line: Wnt-responsive Super-TOp-Flash (STF) luciferase reporter gene assay. The assay is classed as cell-based. The note with it: Homo sapiens, Wnt3A condition medium. As for the experimental part: Compound activity in inhibiting Wnt ligand-induced signaling was measured using a Wnt-responsive Super-TOp-Flash (STF) luciferase reporter gene assay in HEK293 cells. On day 1 of the assay, cells were plated at a density of 8000 cells per well of 384-well plate in 25 μl medium containing 5% fetal bovine serum (FBS). […] On the third day, the luciferase activity was measured by the Bright-Glo™ Luciferase Assay System following manufacture's protocol (Promega, E2620).
(In general: A reporter such as luciferase makes a cellular process visible.)

Assay [4] concerns Herpes Simplex Virus (HSV). To be noted: cited from earlier work.

Broadly, the IC50 is the concentration at which inhibition is half-maximal. Higher therefore signals lower potency. Broadly, the AC50 is the concentration at which the activity in the assay is half-maximal.

Turning to `COc1ccc(C(=O)C2CCN([C@@H]3CCN(CC(=O)Nc4nnc5n4CCS5)C3=O)CC2)cc1` (single isomer, unassigned) [Example 34], the IC50 in assay [1] amounted to 49 nM. In addition, the AC50 in assay [2] came out at 78 ± 6 nM.

For the molecule `COc1ccc2c(c1)CC1(CCN([C@H]3CCN(Cc4nc5c(c(=O)[nH]4)COCC5)C3=O)CC1)C2=O` [Example 16, (S)-2-((3-(5-methoxy-1-oxo-1,3-dihydrospiro[indene-2,4′-piperidine]-1′-yl)-2-oxopyrrolidin-1-yl)methyl)-7,8-dihydro-3H-pyrano[4,3-d]pyrimidin-4(5H)-one], the IC50 in assay [1] came to 82 nM; in assay [3], 1.7 ± 0.2 nM. In assay [2], the half-maximal activity concentration (AC50) turned out to be 7 ± 1 nM.

With `COc1ccc2c(c1)CC1(CCN([C@@H]3CCN(Cc4nc5c(c(=O)[nH]4)COCC5)C3=O)CC1)C2=O` [Example 17, (R)-2-((3-(5-methoxy-1-oxo-1,3-dihydrospiro[indene-2,4′-piperidine]-1′-yl)-2-oxopyrrolidin-1-yl)methyl)-7,8-dihydro-3H-pyrano[4,3-d]pyrimidin-4(5H)-one], the IC50 in assay [1] worked out at 2000 ± 900 nM; in assay [3], 396 ± 10 nM. For the same molecule, the AC50 in assay [2] was 1790 ± 140 nM.

In assay [1], `COc1ccc(C(=O)C2CCN([C@H]3CCN(CC(=O)Nc4nnc5n4CCS5)C3=O)CC2)cc1` [Example 33, N-(5,6-dihydrothiazolo[2,3-c][1,2,4]triazol-3-yl)-2-((S)-3-(4-(4-methoxybenzoyl)piperidin-1-yl)-2-oxopyrrolidin-1-yl)acetamide] returned an IC50 of 1610 nM. The AC50 in assay [2] came to 1340 ± 110 nM.

For `Oc1nc(-c2ccc(C(F)(F)F)cc2)nc2c1CSCC2` [XAV939], the viral growth entry in assay [4] is listed as “decreased viral growth”.
